According to PMC4673163, “Natural paniceins from mediterranean sponge inhibit the multidrug resistance activity of Patched and increase chemotherapy efficiency on melanoma cells” (Oncotarget, 2015):

Molecular target: T1, human Patched (Patched 1; hPatched-MAP) (Homo sapiens, UniProt Q13635)
T1 construct: gene PTCH1; human Patched with MAP tag from pYEP-hPatched-MAP, expressed in Saccharomyces cerevisiae K699; whole yeast, not purified
T1 sequence (Q13635 1-1447): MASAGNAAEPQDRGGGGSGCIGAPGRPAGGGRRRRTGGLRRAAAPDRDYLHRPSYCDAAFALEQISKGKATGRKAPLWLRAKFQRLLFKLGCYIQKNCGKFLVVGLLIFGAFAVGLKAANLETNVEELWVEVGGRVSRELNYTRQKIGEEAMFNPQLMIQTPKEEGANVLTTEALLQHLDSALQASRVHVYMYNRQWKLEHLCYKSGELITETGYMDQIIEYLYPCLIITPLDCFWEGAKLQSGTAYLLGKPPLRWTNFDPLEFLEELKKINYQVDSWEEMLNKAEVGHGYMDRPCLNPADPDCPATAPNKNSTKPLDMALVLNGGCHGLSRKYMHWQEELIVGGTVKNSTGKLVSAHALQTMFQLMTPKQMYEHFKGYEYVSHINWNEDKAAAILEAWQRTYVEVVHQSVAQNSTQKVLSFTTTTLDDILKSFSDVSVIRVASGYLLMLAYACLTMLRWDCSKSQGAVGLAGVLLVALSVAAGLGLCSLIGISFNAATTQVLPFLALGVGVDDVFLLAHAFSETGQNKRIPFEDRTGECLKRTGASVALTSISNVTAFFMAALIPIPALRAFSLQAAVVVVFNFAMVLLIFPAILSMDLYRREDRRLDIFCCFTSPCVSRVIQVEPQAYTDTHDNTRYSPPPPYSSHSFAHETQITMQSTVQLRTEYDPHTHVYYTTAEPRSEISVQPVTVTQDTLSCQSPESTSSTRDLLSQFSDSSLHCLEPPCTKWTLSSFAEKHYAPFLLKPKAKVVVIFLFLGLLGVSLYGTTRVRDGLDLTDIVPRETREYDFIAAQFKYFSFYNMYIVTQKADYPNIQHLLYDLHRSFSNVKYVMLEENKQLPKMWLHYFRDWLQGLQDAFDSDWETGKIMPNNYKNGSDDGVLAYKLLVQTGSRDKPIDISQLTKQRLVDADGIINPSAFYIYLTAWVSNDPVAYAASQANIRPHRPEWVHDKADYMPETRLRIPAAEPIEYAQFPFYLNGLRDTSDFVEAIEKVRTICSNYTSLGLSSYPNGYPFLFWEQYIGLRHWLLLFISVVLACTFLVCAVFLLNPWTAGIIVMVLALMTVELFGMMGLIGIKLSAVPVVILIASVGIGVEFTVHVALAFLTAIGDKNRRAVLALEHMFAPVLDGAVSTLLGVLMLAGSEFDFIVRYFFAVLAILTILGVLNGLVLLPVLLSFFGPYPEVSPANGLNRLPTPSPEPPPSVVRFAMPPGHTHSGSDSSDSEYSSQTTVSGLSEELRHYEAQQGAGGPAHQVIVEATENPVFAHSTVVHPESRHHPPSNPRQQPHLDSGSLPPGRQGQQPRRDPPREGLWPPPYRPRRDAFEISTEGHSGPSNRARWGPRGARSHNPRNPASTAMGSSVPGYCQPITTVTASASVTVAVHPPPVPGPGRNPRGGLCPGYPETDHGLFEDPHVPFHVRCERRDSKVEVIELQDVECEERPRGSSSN
Assay: doxorubicin efflux from de-energized yeast, fluorescence microscopy
Format: cell-based
Settings: read-out: % inhibition of dxr efflux at 10 μM

`COc1cc(C)c(CC/C(C)=C/Cc2cc(O)ccc2O)c(C)c1C` [compound 1, panicein A hydroquinone] was tested, and the inhibition at 10 µM was roughly 40%.
